Assay results taken from ChEMBL document CHEMBL1152779, “Synthesis and applications of polyamine amino acid residues: improving the bioactivity of an analgesic neuropeptide, neurotensin” (J Med Chem, 2009).
Calls of active or inactive are those of the source. The rule behind the calls is not given here. Numbered stars: 1 amine (or outer) side, 2 acyl side, 3 side chain; on linkers, the order of the positions; unused ones are H or OH. Square brackets hold non-standard residues; d marks the D form. Peptide text beside a SMILES is read from it. X1 = NCCCNCCCCNCCCNCCCNCCCC[C@H](N[*:1])C(=O)[*:2]; X2 = O=C([C@H](Cc1cccc2cc[nH]c12)N[*:1])[*:2]; NMeR = CN[C@@H](CCCNC(=N)N)C(=O)O; Tle = CC(C)(C)[C@H](N)C(=O)O

Columns and labels:
Mus musculus [1] = assay: Analgesic activity against formalin-induced paw pain in mouse assessed as elimination of inflammatory phase at 4 mg/kg, ip 1 hr before formalin challenge; format: functional, organism-based; parameters: dose 4 mg/kg
Mus musculus [2] = assay: Analgesic activity against formalin-induced paw pain in mouse assessed as effect on duration of paw licking at 4 mg/kg, ip 1 hr before formalin challenge; format: functional, organism-based; parameters: dose 4 mg/kg
[3] = target: Neurotensin receptor type 1 (Homo sapiens, UniProt P30989); assay: Binding affinity to human recombinant NTS1 in HEK293T cells by competitive binding assay; format: cell-based, HEK-293T
Chain of Neurotensin receptor type 1 (P30989 whole entry): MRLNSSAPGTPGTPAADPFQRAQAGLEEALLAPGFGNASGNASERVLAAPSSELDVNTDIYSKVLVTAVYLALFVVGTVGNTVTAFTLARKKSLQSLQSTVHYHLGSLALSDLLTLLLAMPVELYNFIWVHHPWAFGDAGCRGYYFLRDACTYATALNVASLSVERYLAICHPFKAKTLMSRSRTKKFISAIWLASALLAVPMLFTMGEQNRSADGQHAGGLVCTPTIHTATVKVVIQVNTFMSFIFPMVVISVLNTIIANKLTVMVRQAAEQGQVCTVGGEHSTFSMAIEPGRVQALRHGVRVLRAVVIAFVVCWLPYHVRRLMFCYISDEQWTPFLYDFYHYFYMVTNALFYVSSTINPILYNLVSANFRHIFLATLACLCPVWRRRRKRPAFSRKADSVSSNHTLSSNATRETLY

Kd [3] [nM]	Structure (SMILES)	Activity (Mus musculus [1])	Activity (Mus musculus [2])
–	CC[C@H](C)[C@H](NC(=O)[C@H](Cc1ccc(O)cc1)NC(=O)[C@@H]1CCCN1C(=O)[C@H](CCCCN)NC(=O)[C@H](CCCCN)NC(=O)[C@H](CCCCNCCCNCCCNCCCCNCCCN)NC(C)=O)C(=O)N[C@@H](CC(C)C)C(=O)O (Ac-[X1]KKPYIL-OH)	Active	Active
1.55	CN[C@@H](CCCN=C(N)N)C(=O)N[C@@H](CCCCN)C(=O)N1CCC[C@H]1C(=O)N[C@@H](Cc1cccc2cc[nH]c12)C(=O)N[C@H](C(=O)N[C@@H](CC(C)C)C(=O)O)C(C)(C)C (H-[NMeR]KP[X2][Tle]L-OH)	–	–
150	CC[C@H](C)[C@@H]1NC(=O)[C@H](Cc2ccc(O)cc2)NC(=O)[C@@H]2CCCN2C(=O)[C@H](CCCCN)NC(=O)[C@H](CCCCN)NC(=O)[C@H](CC(C)C)NC(=O)[C@H]([C@@H](C)CC)NC(=O)[C@H](Cc2ccc(O)cc2)NC(=O)[C@@H]2CCCN2C(=O)[C@H](CCCCN)NC(=O)[C@H](CCCCN)NC(=O)[C@H](CC(C)C)NC1=O (cyclo(ILKKPYILKKPY))	–	–
